Experimental data from ChEMBL document CHEMBL5352472, “Mode of action of p-quinone derivatives with trypanocidal activity studied by experimental and in silico models” (Eur J Med Chem, 2023).

What was measured:
[1] = Cytotoxicity against mouse J774 cells after 24 hrs by WST-1 assay; assay type: toxicity, cell-based
[2] = Selectivity index, ratio of CC50 for cytotoxicity against mouse J774 cells to EC50 for trypanocidal activity against Leishmania infantum MHOM/MA/67/ITMAP263 promastigotes; assay type: toxicity, cell-based; conditions: read-out: Ratio CC50/EC50
Leishmania infantum [3] = assay: Antileishmanial activity against Leishmania infantum MHOM/MA/67/ITMAP263 promastigotes expressing red-shifted luciferase gene infected in mouse J774 cells incubated for 24 hrs by microplate luminometer analysis; assay type: functional, organism-based; conditions: MHOM/MA/67/ITMAP263, J774, 24 h
[4] = Selectivity index, ratio of CC50 for cytotoxicity against mouse J774 cells to EC50 for trypanocidal activity against blood stream form Trypanosoma brucei 427; assay type: toxicity, cell-based; conditions: read-out: Ratio CC50/EC50
Trypanosoma brucei [5] = assay: (§1) Redox activity against blood stream form Trypanosoma brucei 427 expressing redox-sensitive green fluorescent protein fused human glutaredoxin assessed as biosensor oxidation by measuring fluorescence at 2 times EC50 incubated for 1 hr by propidium iodide staining based flow cytometric analysis relative to control; assay type: functional
Trypanosoma brucei [6] = assay: Trypanocidal activity against blood stream form Trypanosoma brucei 427 expressing red-shifted luciferase gene measured after 24 hrs by microplate luminometer analysis; assay type: functional, organism-based; conditions: Trypanosoma brucei, 427, 24 h
J774 [7] = assay: Cytotoxicity against mouse J774 cells at 50 uM after 24 hrs by WST-1 assay relative to control; assay type: toxicity, cell-based; conditions: j774, 24 h
Trypanosoma brucei [8] = assay: as §1, with “at 1” for “at 2”; assay type: functional
J774 [9] = assay: Cytotoxicity against mouse J774 cells at 10 uM after 24 hrs by WST-1 assay relative to control; assay type: toxicity, cell-based; conditions: j774, 24 h
[10] = Selectivity index, ratio of CC50 for cytotoxicity against mouse J774 cells to EC50 for trypanocidal activity against Trypanosoma cruzi DM28c amastigotes; assay type: toxicity, cell-based; conditions: read-out: Ratio CC50/EC50
Trypanosoma cruzi [11] = assay: Trypanocidal activity against Trypanosoma cruzi DM28c amastigotes expressing red-shifted luciferase gene infected in african green monkey Vero cells incubated for 72 hrs by microplate luminometer analysis; assay type: functional, organism-based
Leishmania infantum [12] = assay: Antileishmanial activity against Leishmania infantum MHOM/MA/67/ITMAP263 promastigotes expressing red-shifted luciferase gene infected in mouse J774 cells incubated at 20 uM for 24 hrs by microplate luminometer analysis relative to control; assay type: functional
Leishmania infantum [13] = assay: Antileishmanial activity against Leishmania infantum MHOM/MA/67/ITMAP263 promastigotes expressing red-shifted luciferase gene infected in mouse J774 cells incubated at 10 uM for 24 hrs by microplate luminometer analysis relative to control; assay type: functional
Trypanosoma cruzi [14] = assay: Trypanocidal activity against Trypanosoma cruzi DM28c amastigotes expressing red-shifted luciferase gene infected in african green monkey Vero cells incubated at 10 uM for 72 hrs by microplate luminometer analysis relative to control; assay type: functional

EC50 (Leishmania infantum [3]) [µM] | SMILES | CC50 at 24 h [1] [µM] | selectivity ratio [2] | selectivity ratio [4] | Activity (Trypanosoma brucei [5]) [%] | EC50 (Trypanosoma brucei [6]) [µM] | Activity (J774 [7]) [%] | Activity (Trypanosoma brucei [8]) [%] | Activity (J774 [9]) [%] | selectivity ratio [10] | EC50 (Trypanosoma cruzi [11]) [µM] | Activity (Leishmania infantum [12]) [%] | Activity (Leishmania infantum [13]) [%] | Activity (Trypanosoma cruzi [14]) [%]
0.035 | C[C@@H]1[C@H](O)[C@@H](C)/C=C/C=C/C=C/C=C/C=C/C=C/C=C/[C@H](O[C@@H]2O[C@H](C)[C@@H](O)[C@H](N)[C@@H]2O)C[C@@H]2O[C@](O)(C[C@@H](O)C[C@@H](O)[C@H](O)CC[C@@H](O)C[C@@H](O)CC(=O)O[C@H]1C)C[C@H](O)[C@H]2C(=O)O [AMPHOTERICIN B] | 9 | 257 | – | – | – | – | – | – | – | – | – | – | –
– | O=C1C=C(Oc2ccccc2)C(=O)c2oc(-c3ccccc3)nc21 | 46 | – | 14 | 94.92 | 3.3 | – | – | – | – | – | – | – | –
– | O=C1C=C(Oc2ccc3cccnc3c2)C(=O)c2ccccc21 | < 50 | – | < 13 | 7.92 | 3.8 | 37 | – | – | – | – | – | – | –
– | O=C1C=C(Oc2ccc3cc(O)ccc3c2)C(=O)c2ccccc21 | ~50 | – | ~14 | 40.54 | 4.3 | 63 | – | – | – | – | – | – | –
– | O=C1C=C(Oc2ccccc2)C(=O)c2sc(-c3ccccc3)nc21 | < 10 | – | < 6 | – | 1.8 | – | 95.51 | 40 | – | – | – | – | –
– | O=C1C(Nc2ccccc2)=C(Br)C(=O)c2oc(-c3ccccc3)nc21 | < 10 | – | < 5 | 95.87 | 1.9 | – | – | 0.5 | – | – | – | – | –
– | O=C1C=C(Oc2ccccc2)C(=O)c2oc(-c3ccccc3)cc21 | 37 | – | 13 | – | 2.9 | – | 85.4 | – | – | – | – | – | –
– | COc1ccc(OC2=CC(=O)c3nc(-c4ccccc4)sc3C2=O)cc1 | 78 | – | 43 | 89.22 | 1.8 | – | – | – | 71 | 1.1 | 90 | – | –
– | O=C1C=CC(=O)c2oc(-c3ccccc3)cc21 | 118 | – | 44 | 95.33 | 2.7 | – | – | – | – | – | – | 129 | 88
– | O=C1C=CC(=O)c2sc(-c3ccccc3)nc21 | < 10 | – | < 8 | 99.42 | 1.3 | – | – | 0 | – | – | – | – | –
– | O=C1C(Nc2ccccc2)=C(Br)C(=O)c2sc(-c3ccccc3)nc21 | < 10 | – | < 22 | 85.67 | 0.5 | – | – | 117 | – | – | – | – | –
– | O=C1C(Nc2ccccc2)=C(Br)C(=O)c2oc(-c3ccccc3)cc21 | 57 | – | 63 | – | 0.9 | – | 71.31 | – | 71 | 0.8 | – | 102 | –
– | O=C1C=CC(=O)c2oc(-c3ccccc3)nc21 | < 10 | – | < 4 | 100 | 2.3 | – | – | 21 | – | – | – | – | –
– | O=C1C=C(Oc2ccc(F)cc2)C(=O)c2sc(-c3ccccc3)nc21 | < 10 | – | < 2 | 92.06 | 5 | – | – | 5 | – | – | – | – | –
38.2 | CCCCCCCCCCCCCCCCOP(=O)([O-])OCC[N+](C)(C)C [MILTEFOSINE] | 50 | ~1 | – | – | – | – | – | – | – | – | – | – | –
– | O=C1C=C(Br)C(=O)c2sc(-c3ccccc3)nc21 | 61 | – | 40 | 96.99 | 1.5 | – | – | – | – | – | 91 | – | 78
– | O=C1C=C(Br)C(=O)c2oc(-c3ccccc3)nc21 | < 10 | – | < 6 | 20.95 | 1.6 | – | – | 10 | – | – | – | – | –
– | CC(C)(C)c1ccc(OC2=CC(=O)c3ccccc3C2=O)cc1 | < 50 | – | < 9 | – | 5.5 | 24 | 81.7 | – | – | – | – | – | –
– | CC1CS(=O)(=O)CCN1/N=C/c1ccc([N+](=O)[O-])o1 (stereo not given) [NIFURTIMOX] | 100 | – | 19 | – | 5.3 | – | – | – | 142 | 0.7 | 137 | – | –
– | O=C1C=C(Br)C(=O)c2oc(-c3ccccc3)cc21 | 59 | – | 2 | – | 38 | – | 99.25 | – | – | – | – | – | –
– | O=C1C=C(Oc2ccc(CO)cc2)C(=O)c2ccccc21 | ~50 | – | ~11 | 87.33 | 4.6 | 49 | – | – | – | – | – | – | –
– | COc1ccc2cc(OC3=CC(=O)c4ccccc4C3=O)ccc2c1 | ~50 | – | ~10 | 59.07 | 5.2 | 57 | – | – | – | – | – | – | –
